Here are results for 31 compounds from patent US20100022531A1, “NOVEL COMPOUNDS AS P2X7 MODULATORS AND USES THEREOF” (RENOVIS, INC., priority 2005, published 2010).

The assay deals with T1, P2X7 receptor (Homo sapiens, UniProt Q99572).
T1 construct: host or cells: THP-1 cells differentiated with LPS and IFN-γ
T1 sequence (Q99572 1-595): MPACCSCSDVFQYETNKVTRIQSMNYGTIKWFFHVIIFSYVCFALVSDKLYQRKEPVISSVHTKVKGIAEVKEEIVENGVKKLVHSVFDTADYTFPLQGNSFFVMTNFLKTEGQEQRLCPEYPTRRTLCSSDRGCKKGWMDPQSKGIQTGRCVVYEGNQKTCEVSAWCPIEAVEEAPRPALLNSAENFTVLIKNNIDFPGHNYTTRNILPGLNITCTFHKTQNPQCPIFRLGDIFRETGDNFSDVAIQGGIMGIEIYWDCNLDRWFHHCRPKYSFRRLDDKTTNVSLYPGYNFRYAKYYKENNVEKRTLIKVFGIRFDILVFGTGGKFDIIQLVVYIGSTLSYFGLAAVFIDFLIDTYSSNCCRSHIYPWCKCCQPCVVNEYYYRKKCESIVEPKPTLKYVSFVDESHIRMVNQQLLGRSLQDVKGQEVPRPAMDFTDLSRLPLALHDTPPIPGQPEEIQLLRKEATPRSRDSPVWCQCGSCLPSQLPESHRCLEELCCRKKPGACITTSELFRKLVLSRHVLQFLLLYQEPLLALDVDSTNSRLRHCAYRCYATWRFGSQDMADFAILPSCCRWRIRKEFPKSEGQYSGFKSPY
The assay can be described thus: Alternate method for IL-1β release assay (differentiated THP-1 cells, BzATP-stimulated, ELISA). The format is cell-based. To be noted: P2X7; for inhibition at 0.1 µM: 0.1 μM compound (symbols + to ++++), read-out: IL-1β % inhib @ 0.1 μM; for inhibition at 0.03 µM: at 0.03 μM (asterisk symbols), read-out: IL-1β % inhib @ 0.3 μM or @ 0.03 μM. The essentials: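 After 16 h differentiation with 100 ng/mL LPS and 100 ng/mL IFN-γ plus a further 2 h LPS priming, THP-1 cells were pretreated 30 min with compound, then stimulated with 250 uM BzATP (final) for 45 min. Supernatant IL-1β measured by ELISA; percent inhibition from background-adjusted levels versus untreated cells.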
On the technique in general: ELISA stands for enzyme-linked immunosorbent assay.

As for `O=C(OCc1ccc(F)cc1)N1CCc2c(ncnc2NCC23CC4CC(CC(C4)C2)C3)C1` [Compound 327], the inhibition at 0.1 µM was 50 to 75%. As for `O=C(OCc1cccnc1)N1CCc2c(ncnc2NCC23CC4CC(CC(C4)C2)C3)C1` [Compound 328], the inhibition at 0.1 µM lay in the range of 50 to 75%.

`CS(=O)(=O)c1ccc(COC(=O)N2CCc3c(ncnc3NCC34CC5CC(CC(C5)C3)C4)C2)cc1` [Compound 329]: the inhibition at 0.1 µM was in the range of 50 to 75%. Regarding `Cc1cc(COC(=O)N2CCc3c(ncnc3NCC34CC5CC(CC(C5)C3)C4)C2)no1` [Compound 330], the inhibition at 0.1 µM is 0 to 25%. Turning to `O=C(OCc1cscn1)N1CCc2c(ncnc2NCC23CC4CC(CC(C4)C2)C3)C1` [Compound 331], the inhibition at 0.1 µM fell in the range of 0 to 25%. With `FC12CC3CC(C1)CC(CNc1ncnc4c1CCN(Cc1ccc5c(c1)OCCO5)C4)(C3)C2` [Compound 332], the inhibition at 0.1 µM lay in the range of 0 to 25%. The same measure, in the same setting: next, `N#Cc1cccc(C(=O)N2CCc3c(ncnc3NCC34CC5CC(CC(F)(C5)C3)C4)C2)c1` [Compound 333]: 25 to 50%. Take `O=C(OCCSCc1ccccc1)N1CCc2c(ncnc2NCC23CC4CC(CC(C4)C2)C3)C1` [Compound 334]: the inhibition at 0.1 µM fell in the range of 25 to 50%.

As for `O=C(SCc1ccc(F)cc1)N1CCc2c(ncnc2NCC23CC4CC(CC(C4)C2)C3)C1` [Compound 335], the inhibition at 0.1 µM was in the range of 0 to 25%. Turning to `O=C(OCc1ccco1)N1CCc2c(ncnc2NCC23CC4CC(CC(C4)C2)C3)C1` [Compound 336], the inhibition at 0.1 µM was greater than 75%. Still for that read-out and setting: the value for `O=C(OCc1ccccc1F)N1CCc2c(ncnc2NCC23CC4CC(CC(C4)C2)C3)C1` [Compound 337] was 0 to 25%; that for `O=C(OCc1c(F)cccc1F)N1CCc2c(ncnc2NCC23CC4CC(CC(C4)C2)C3)C1` [Compound 338] was greater than 75%.

Turning to `O=C(OCc1ccccc1Cl)N1CCc2c(ncnc2NCC23CC4CC(CC(C4)C2)C3)C1` [Compound 339], the inhibition at 0.1 µM is greater than 75%.

Turning to `O=C(OCc1ccoc1)N1CCc2c(ncnc2NCC23CC4CC(CC(C4)C2)C3)C1` [Compound 340], the inhibition at 0.1 µM was 50 to 75%. Still for that read-out and setting: next, `O=C(OCC1CCCO1)N1CCc2c(ncnc2NCC23CC4CC(CC(C4)C2)C3)C1` (stereo not shown) [Compound 341]: 50 to 75%; `O=C(OCc1ccccn1)N1CCc2c(ncnc2NCC23CC4CC(CC(C4)C2)C3)C1` [Compound 342]: 0 to 25%.

As to `O=C(OCc1ccncc1)N1CCc2c(ncnc2NCC23CC4CC(CC(C4)C2)C3)C1` [Compound 343], the inhibition at 0.1 µM was 0 to 25%. The same measure, in the same setting: the value for `O=C(SCc1c(F)cccc1Cl)N1CCc2c(ncnc2NCC23CC4CC(CC(C4)C2)C3)C1` [Compound 344] was 25 to 50%. The same measure, in the same setting: the value for `Cc1nn(-c2ccccc2)nc1COC(=O)N1CCc2c(ncnc2NCC23CC4CC(CC(C4)C2)C3)C1` [Compound 345] was 25 to 50%; that for `O=C(OCc1ncoc1-c1ccccc1)N1CCc2c(ncnc2NCC23CC4CC(CC(C4)C2)C3)C1` [Compound 346] was 0 to 25%; that for `Cc1cc(COC(=O)N2CCc3c(ncnc3NCC34CC5CC(CC(C5)C3)C4)C2)nn1C` [Compound 347] was 50 to 75%. The same measure, in the same setting: the value for `O=C(OCc1cnccn1)N1CCc2c(ncnc2NCC23CC4CC(CC(C4)C2)C3)C1` [Compound 348] was 25 to 50%. `O=C(OCc1cncs1)N1CCc2c(ncnc2NCC23CC4CC(CC(C4)C2)C3)C1` [Compound 349]: the inhibition at 0.1 µM lay in the range of 0 to 25%. Same read-out and setting: the value for `O=C(c1cccnc1)N1CCc2c(ncnc2NCC23CC4CC(CC(O)(C4)C2)C3)C1` [Compound 350, {4-[(3-Hydroxy-adamantan-1-ylmethyl)-amino]-5,8-dihydro-6H-pyrido[3,4-d]pyrimidin-7-yl}-pyridin-3-yl-methanone] was 25 to 50%; that for `CC(C)[C@H](NC(=O)OC(C)(C)C)C(=O)N1CCc2c(ncnc2NCC23CC4CC(CC(C4)C2)C3)C1` [Compound 351] was greater than 75%. For the compound `CC(C)(C)OC(=O)NCC(=O)N1CCc2c(ncnc2NCC(O)C23CC4CC(CC(C4)C2)C3)C1` (stereo not shown) [Compound 707, {2-[4-(2-Adamantan-1-yl-2-hydroxy-ethylamino)-5,8-dihydro-6H-pyrido[3,4d]pyrimidin-7-yl]-2-oxo-ethyl}-carbamic acid tert-butyl ester], the inhibition at 0.03 µM fell in the range of 50 to 75%.

As for `C[C@H](NC(=O)OC(C)(C)C)C(=O)N1CCc2c(ncnc2NCC(O)C23CC4CC(CC(C4)C2)C3)C1` (stereo partly drawn) [Compound 708, {(S)-2-[4-(2-Adamantan-1-yl-2-hydroxy-ethylamino)-5,8-dihydro-6H-pyrido[3,4-d]pyrimidin-7-yl]-1-methyl-2-oxo-ethyl}-carbamic acid tert-butyl ester], the inhibition at 0.03 µM lay in the range of 50 to 75%. Consider `CC(C)(C)OC(=O)N[C@@H](Cc1ccccc1)C(=O)N1CCc2c(ncnc2NCC(O)C23CC4CC(CC(C4)C2)C3)C1` (stereo partly drawn) [Compound 709, {(S)-2-[4-(2-Adamantan-1-yl-2-hydroxy-ethylamino)-5,8-dihydro-6H-pyrido[3,4-d]pyrimidin-7-yl]-1-benzyl-2-oxo-ethyl}-carbamic acid tert-butyl ester], for which the inhibition at 0.03 µM fell in the range of 0 to 25%. Turning to `C[C@@H](NC(=O)OC(C)(C)C)C(=O)N1CCc2c(ncnc2NCC(O)C23CC4CC(CC(C4)C2)C3)C1` (stereo partly drawn) [Compound 710, {(R)-2-[4-(2-Adamantan-1-yl-2-hydroxy-ethylamino)-5,8-dihydro-6H-pyrido[3,4-d]pyrimidin-7-yl]-1-methyl-2-oxo-ethyl}-carbamic acid tert-butyl ester], the inhibition at 0.03 µM lay in the range of 0 to 25%.

Regarding `CC(C)(C)OC(=O)N[C@H](Cc1ccccc1)C(=O)N1CCc2c(ncnc2NCC(O)C23CC4CC(CC(C4)C2)C3)C1` (stereo partly drawn) [Compound 711, {(R)-2-[4-(2-Adamantan-1-yl-2-hydroxy-ethylamino)-5,8-dihydro-6H-pyrido[3,4-d]pyrimidin-7-yl]-1-benzyl-2-oxo-ethyl}-carbamic acid tert-butyl ester], the inhibition at 0.03 µM is 0 to 25%. For the compound `C[C@H](N)C(=O)N1CCc2c(ncnc2NCC(O)C23CC4CC(CC(C4)C2)C3)C1` (stereo partly drawn) [Compound 713, (S)-1-[4-(2-Adamantan-1-yl-2-hydroxy-ethylamino)-5,8-dihydro-6H-pyrido[3,4-d]pyrimidin-7-yl]-2-amino-propan-1-one], the inhibition at 0.03 µM fell in the range of 0 to 25%.
